From patent US20190352288A1, “MATRIX METALLOPROTEINASE (MMP) INHIBITORS AND METHODS OF USE THEREOF” (Foresee Pharmaceuticals Co., Ltd., priority 2018, published 2019)

Molecular target: T1, recombinant human MMP-12 catalytic domain (Homo sapiens, UniProt P39900)
T1 construct: recombinant human MMP-12 catalytic domain; purchased Enzo BML-SE138
Assay: MMP-12 inhibitory assay (fluorogenic substrate cleavage)
Assay type: biochemical
Conditions: readout at 30 minutes, 37° C., Table 1
Method: The inhibitory effect of compounds on the rate of cleaving fluorogenic MMP substrate (Enzo, BML-P128) by recombinant human MMP-12 catalytic domain (Enzo, BML-SE138) was carried out by methods known in the art. Briefly, to each well of a 96-well black opaque plate, all the reagents were sequentially added by pipetting, and the final reaction contained 4 nM of recombinant human MMP-12 catalytic domain, 4 μM of fluorogenic MMP substrate, and various concentrations (0.15 nM to 10,000 nM) of tested compound dilutions in HEPES buffer (pH 7.5) containing 10 mM of CaCl2), 0.01% Brij® 35 (polyoxyethylene (23) lauryl ether), and 0.1 mg/ml of BSA.
The enzyme and compounds were pre-incubated on a shaker to mix in wells. After an hour of mixing, fluorogenic substrate was added to each well. Reaction without enzyme was used as a blank control in the plate. The plate was then fed into a plate reader to measure fluorescence intensity at Excitation/Emission wavelengths of 340 nm/440 nm every 10 mins for at least 1 hour at 37° C. The IC50 of each compound in MMP-12 inhibition was determined by using a readout obtained at time point 30 minutes.

T1 sequence (P39900 106-268 limits assumed): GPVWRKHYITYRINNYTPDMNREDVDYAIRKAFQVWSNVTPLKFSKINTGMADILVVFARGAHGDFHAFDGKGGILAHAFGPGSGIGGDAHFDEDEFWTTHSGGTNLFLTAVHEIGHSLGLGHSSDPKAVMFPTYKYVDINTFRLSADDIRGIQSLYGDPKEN

SMILES	IC50 [nM]
CC(C)[C@H](N)C(=O)OCc1cccc(COc2ccc(Sc3ccncc3C3NC(=O)NC3=O)cc2)c1 (stereo partly shown) [PC-11]	10 to 100
O=C1NC(=O)C(c2cnccc2Sc2ccc(OCc3cncc(CO)c3)cc2)N1 (stereo not shown) [PC-39]	100 to 1000
CCCOc1cccc(COc2ccc(Sc3ccsc3C3NC(=O)NC3=O)cc2)c1 (stereo not shown) [TC1]	100 to 1000
CNC(=O)c1cncc(COc2ccc(Sc3ccncc3C3NC(=O)NC3=O)cc2)c1 (stereo not shown) [PC-36]	100 to 1000
Cc1cc(COc2ccc(Oc3ccncc3C3NC(=O)NC3=O)cc2)ccn1 (stereo not shown) [PC-27]	10 to 100
O=C1NC(=O)C(c2cnccc2Oc2ccc(OCc3cccc(C(=O)O)c3)cc2)N1 (stereo not shown) [PC-23]	> 1000
CC(C)COc1cc(COc2ccc(Sc3ccncc3C3NC(=O)NC3=O)cc2)ccn1 (stereo not shown) [PC-33]	100 to 1000
COc1ccc(CN2C(=O)NC(c3cnccc3Sc3ccc(OCc4ccnc(C)c4)cc3)C2=O)cc1 (stereo not shown) [PC-55]	100 to 1000
Cc1cc(CCc2ccc(Oc3ccncc3C3NC(=O)NC3=O)cc2)ccn1 (stereo not shown) [PC-62]	100 to 1000
Cc1cc(COc2ccc(Sc3ccncc3C3NC(=O)NC3=O)cn2)ccn1 (stereo not shown) [PC-61]	100 to 1000
Cc1cc(CCc2ccc(Sc3ccncc3C3NC(=O)NC3=O)cc2)ccn1 (stereo not shown) [PC-57]	10 to 100
Cc1cc(COc2ccc(Sc3ccncc3C3NC(=O)NC3=O)cc2F)ccn1 (stereo not shown) [PC-52]	10 to 100

Continued, values first:

IC50 [nM]	SMILES
10 to 100	Cc1cccc(COc2ccc(Sc3cccnc3C3NC(=O)NC3=O)cc2)c1 (stereo not shown) [PC-3]
100 to 1000	O=C1NC(=O)C(c2cnccc2Sc2ccc(OCc3ccnc(O)c3)cc2)N1 (stereo not shown) [PC-35]
10 to 100	Cc1cccc(COc2ccc(Sc3ncccc3C3NC(=O)NC3=O)cc2)c1 (stereo not shown) [PC-1]
100 to 1000	NC(=O)c1cc(COc2ccc(Sc3ccncc3C3NC(=O)NC3=O)cc2)ccn1 (stereo not shown) [PC-59]
100 to 1000	Cc1cccc(COc2ccc([S+]([O-])c3ccncc3C3NC(=O)NC3=O)cc2)c1 (stereo not shown) [PC-5]
10 to 100	O=C1NC(=O)C(c2cnccc2Sc2ccc(OCc3ccccc3CO)cc2)N1 (stereo not shown) [PC-9]
100 to 1000	CC(C)Oc1cccc(COc2ccc(Sc3ccsc3C3NC(=O)NC3=O)cc2)c1 (stereo not shown) [TC3]
100 to 1000	Cc1cncc(COc2ccc(Sc3cnccc3C3NC(=O)NC3=O)cc2)c1 (stereo not shown) [PC-19]
10 to 100	COc1cc(COc2ccc(Sc3ccncc3C3NC(=O)NC3=O)cc2)ccn1 (stereo not shown) [PC-30]
10 to 100	Cc1cc(OCc2ccc(Sc3ccncc3C3NC(=O)NC3=O)cc2)ccn1 (stereo not shown) [PC-44]
10 to 100	Cc1cccc(COc2ccc(Sc3ccccc3C3NC(=O)NC3=O)cc2)c1 (stereo not shown) [OC-1]
10 to 100	CCOc1cc(COc2ccc(Sc3ccncc3C3NC(=O)NC3=O)cc2)ccn1 (stereo not shown) [PC-31]
> 1000	Cc1cccc(COc2ccc(S(=O)(=O)c3cc[n+](O)cc3C3NC(=O)NC3=O)cc2)c1 (stereo not shown) [OC-4]
10 to 100	Cc1cccc(COc2ccc(Sc3ncn(C)c3C3NC(=O)NC3=O)cc2)c1 (stereo not shown) [OC-6]
10 to 100	O=C1NC(=O)C(c2cnccc2Sc2ccc(OCc3ccc(CO)cc3)cc2)N1 (stereo not shown) [PC-7]
100 to 1000	Cc1cccc(COc2ccc(S(=O)(=O)c3ccncc3C3NC(=O)NC3=O)cc2)c1 (stereo not shown) [PC-6]
